For one experiment, the target named is T1, Progesterone receptor (Homo sapiens, UniProt P06401).
T1 sequence (P06401 whole entry): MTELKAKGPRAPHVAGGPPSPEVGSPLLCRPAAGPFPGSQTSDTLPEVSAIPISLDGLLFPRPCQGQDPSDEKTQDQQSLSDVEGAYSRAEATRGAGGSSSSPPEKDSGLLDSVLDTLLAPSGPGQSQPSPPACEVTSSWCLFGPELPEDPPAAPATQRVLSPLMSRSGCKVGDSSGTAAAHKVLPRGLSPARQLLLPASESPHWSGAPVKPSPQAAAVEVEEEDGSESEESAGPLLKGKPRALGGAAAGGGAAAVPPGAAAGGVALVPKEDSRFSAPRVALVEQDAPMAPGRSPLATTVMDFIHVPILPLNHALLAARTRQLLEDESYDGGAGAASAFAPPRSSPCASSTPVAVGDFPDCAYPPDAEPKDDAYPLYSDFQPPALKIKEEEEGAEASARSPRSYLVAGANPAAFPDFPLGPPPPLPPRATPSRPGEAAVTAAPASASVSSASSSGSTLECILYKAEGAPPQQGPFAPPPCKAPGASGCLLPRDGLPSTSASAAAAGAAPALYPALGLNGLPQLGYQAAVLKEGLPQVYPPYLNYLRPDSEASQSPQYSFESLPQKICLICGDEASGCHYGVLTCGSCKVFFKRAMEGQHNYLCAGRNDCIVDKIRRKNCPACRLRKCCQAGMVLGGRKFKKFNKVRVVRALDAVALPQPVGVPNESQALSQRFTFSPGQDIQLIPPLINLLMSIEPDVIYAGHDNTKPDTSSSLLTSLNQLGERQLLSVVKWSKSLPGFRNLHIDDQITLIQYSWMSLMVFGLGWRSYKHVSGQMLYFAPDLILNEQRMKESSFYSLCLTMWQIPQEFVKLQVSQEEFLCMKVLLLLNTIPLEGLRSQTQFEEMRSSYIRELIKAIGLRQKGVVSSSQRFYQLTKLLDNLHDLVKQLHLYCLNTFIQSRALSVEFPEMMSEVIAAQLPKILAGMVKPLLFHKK
Description: Binding affinity to progesterone receptor.

Experiment [1] deals with T2, Glucocorticoid receptor (Homo sapiens, UniProt P04150).
T2 sequence (P04150 whole entry): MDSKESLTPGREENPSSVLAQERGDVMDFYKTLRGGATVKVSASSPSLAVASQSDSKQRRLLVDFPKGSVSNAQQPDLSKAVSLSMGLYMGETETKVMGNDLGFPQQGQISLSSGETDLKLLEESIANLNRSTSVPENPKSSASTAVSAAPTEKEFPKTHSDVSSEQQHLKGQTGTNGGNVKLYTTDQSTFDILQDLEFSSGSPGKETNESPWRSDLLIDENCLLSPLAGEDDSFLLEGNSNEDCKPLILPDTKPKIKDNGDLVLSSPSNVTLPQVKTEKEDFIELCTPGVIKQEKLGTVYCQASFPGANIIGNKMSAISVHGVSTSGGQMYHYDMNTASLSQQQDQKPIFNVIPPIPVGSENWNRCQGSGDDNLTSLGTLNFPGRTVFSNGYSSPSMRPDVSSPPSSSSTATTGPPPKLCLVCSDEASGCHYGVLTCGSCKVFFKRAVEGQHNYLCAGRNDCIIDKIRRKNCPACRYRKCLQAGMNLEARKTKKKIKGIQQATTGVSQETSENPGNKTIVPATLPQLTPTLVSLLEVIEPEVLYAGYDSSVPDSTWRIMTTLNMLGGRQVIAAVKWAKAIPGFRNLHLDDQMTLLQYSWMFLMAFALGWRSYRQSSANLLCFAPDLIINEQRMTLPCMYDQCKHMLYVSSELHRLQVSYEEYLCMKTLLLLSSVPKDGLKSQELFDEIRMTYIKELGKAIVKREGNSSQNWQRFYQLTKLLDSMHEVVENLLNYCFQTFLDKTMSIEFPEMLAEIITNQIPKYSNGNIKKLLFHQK
As to the kind of experiment: Transrepression activity at glucocorticoid receptor in human HepG2 cells assessed as inhibition of TNFalpha/IL1beta-stimulated NFkappaB-dependent E-selectin repression by luciferase reporter gene assay. It counts as cell-based. For orientation: A reporter such as luciferase makes a cellular process visible.

In experiment [2] the target is T2, Glucocorticoid receptor. As to the kind of experiment: Agonist activity at glucocorticoid receptor in human HepG2 cells co-transfected with PEPCK assessed as GRE activation by luciferase reporter gene assay. It counts as functional, cell-based.
For experiment [3], the target named is T3, Mineralocorticoid receptor (Homo sapiens, UniProt P08235).
T3 sequence (P08235 whole entry): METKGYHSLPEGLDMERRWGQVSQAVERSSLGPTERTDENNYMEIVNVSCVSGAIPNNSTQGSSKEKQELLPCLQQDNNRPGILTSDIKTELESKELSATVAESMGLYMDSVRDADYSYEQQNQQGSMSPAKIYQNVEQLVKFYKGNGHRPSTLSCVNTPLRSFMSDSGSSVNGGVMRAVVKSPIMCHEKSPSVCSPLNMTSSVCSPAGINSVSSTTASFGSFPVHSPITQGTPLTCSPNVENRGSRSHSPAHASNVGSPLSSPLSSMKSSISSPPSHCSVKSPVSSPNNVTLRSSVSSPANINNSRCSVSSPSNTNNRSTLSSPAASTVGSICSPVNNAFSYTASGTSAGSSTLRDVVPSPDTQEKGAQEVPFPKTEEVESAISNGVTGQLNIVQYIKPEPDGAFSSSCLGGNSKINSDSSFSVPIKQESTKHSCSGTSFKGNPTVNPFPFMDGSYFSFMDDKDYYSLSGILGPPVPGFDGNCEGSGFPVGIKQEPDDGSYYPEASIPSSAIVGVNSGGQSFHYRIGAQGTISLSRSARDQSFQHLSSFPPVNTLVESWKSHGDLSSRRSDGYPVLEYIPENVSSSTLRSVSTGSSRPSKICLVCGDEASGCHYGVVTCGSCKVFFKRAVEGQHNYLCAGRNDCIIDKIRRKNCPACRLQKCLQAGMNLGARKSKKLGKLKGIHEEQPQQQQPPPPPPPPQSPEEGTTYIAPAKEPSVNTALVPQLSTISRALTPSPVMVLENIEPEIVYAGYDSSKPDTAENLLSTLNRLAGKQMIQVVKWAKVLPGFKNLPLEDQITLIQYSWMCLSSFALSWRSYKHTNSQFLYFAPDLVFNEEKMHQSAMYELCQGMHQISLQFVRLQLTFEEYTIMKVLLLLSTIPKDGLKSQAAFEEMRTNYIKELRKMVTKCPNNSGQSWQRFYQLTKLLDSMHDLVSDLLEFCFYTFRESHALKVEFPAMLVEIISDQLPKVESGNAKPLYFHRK
As to the kind of experiment: Binding affinity to mineralocorticoid receptor.

Usually Ki stands for the equilibrium dissociation constant of an inhibitor or competing ligand from its target. As usually defined, the IC50 is the point on the concentration scale where inhibition reaches its midpoint. Broadly, the EC50 is the concentration giving half of the maximal effect. `Cc1c[nH]c2c(-c3c(F)cc4c(c3F)/C(=N/OC(C)(C)C)CC(C)(C)N4)cccc12`: the Ki on Progesterone receptor turned out to be 0.22 µM; in experiment [3] it was 1.6 µM. The IC50 at Glucocorticoid receptor [1] stood at 0.0056 µM. Further, the EC50 at Glucocorticoid receptor [2] is 0.07 µM.
Turning to `CO/N=C1/c2c(cc(F)c(-c3cccc4c(C)c[nH]c34)c2F)NC(C)(C)C1O` (racemic), the inhibition constant Ki on Progesterone receptor turned out to be 3.8 µM; in experiment [3], 1.7 µM. Also, the IC50 on Glucocorticoid receptor [1] turned out to be 0.0034 µM. For the same compound, at Glucocorticoid receptor [2], the concentration for a half-maximal effect (EC50) was found to be 0.56 µM.
Regarding `Cc1c[nH]c2c(-c3c(F)cc4c(c3F)/C(=N/OC(C)C)CC(C)(C)N4)cccc12`, the Ki at Progesterone receptor amounted to 0.38 µM; in experiment [3], 2.8 µM. On Glucocorticoid receptor [1], the IC50 is 0.0049 µM. The EC50 on Glucocorticoid receptor [2] was 0.25 µM.
For `CC1(C)C/C(=N\OC(C)(C)C)c2c(cc(F)c(-c3cccc4c(Cl)c[nH]c34)c2F)N1`, the Ki turned out to be 0.57 µM on Progesterone receptor and 1.04 µM in experiment [3]. Moreover, at Glucocorticoid receptor [1], the IC50 was determined as 0.004 µM. The EC50 on Glucocorticoid receptor [2] was found to be 0.067 µM.
The matching figures for `Cc1c[nH]c2c(-c3c(F)cc4c(c3F)/C(=N/OC(C)(C)CO)CC(C)(C)N4)cccc12`: 0.95 µM, 2.7 µM, 0.012 µM and 0.35 µM.
